ChEMBL document CHEMBL1201861, “Genomics of Drug Sensitity in Cancer screening data, Wellcome Trust Sanger Institute”

Tests used:
Test in all cases: cells
MV4-11 = type: functional, cell-based, MV-4-11; details: Homo sapiens;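 further: cell viability readout measuring growth inhibition of human MV-4-11 cells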
Description: SANGER: Inhibition of human MV-4-11 cell growth in a cell viability assay.

SF-539 = type: functional, cell-based, Homo sapiens; details: Homo sapiens, SF-539;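 further: Read-out is a cell viability assay, with IC50 reflecting inhibition of cell growth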
Description: SANGER: Inhibition of human SF539 cell growth in a cell viability assay.

Calu-6 = type: functional, cell-based, Homo sapiens; details: Homo sapiens, Calu-6;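 further: growth of human Calu-6 cells, read out by a cell viability assay, IC50 marking inhibition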
Description: SANGER: Inhibition of human Calu-6 cell growth in a cell viability assay.

DMS-273 = type: functional, cell-based, Homo sapiens; details: Homo sapiens, DMS-273
Description: SANGER: Inhibition of human DMS-273 cell growth in a cell viability assay.

Detroit 562 = type: functional, cell-based, Homo sapiens; details: Homo sapiens, Detroit 562;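 further: growth inhibition of human Detroit 562 cells, read out by a cell viability assay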
Description: SANGER: Inhibition of human Detroit562 cell growth in a cell viability assay.

D-423MG = type: functional, cell-based; details: Homo sapiens
Description: SANGER: Inhibition of human D-423MG cell growth in a cell viability assay.

ES1 = type: functional, cell-based, Homo sapiens; details: Homo sapiens, ES1;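 further: growth inhibition of ES1 cells, read out with a cell viability assay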
Description: SANGER: Inhibition of human ES1 cell growth in a cell viability assay.

NB5 = type: functional, cell-based, Homo sapiens; details: Homo sapiens, NB5;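 further: growth inhibition of NB5 cells, read out as cell viability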
Description: SANGER: Inhibition of human NB5 cell growth in a cell viability assay.

EM-2 = type: functional, cell-based; details: Homo sapiens;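 further: growth inhibition of EM-2 cells, read out with a cell viability assay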
Description: SANGER: Inhibition of human EM-2 cell growth in a cell viability assay.

LB996-RCC = type: functional, cell-based; details: Homo sapiens
Description: SANGER: Inhibition of human LB996-RCC cell growth in a cell viability assay.

HEL = type: functional, cell-based, Homo sapiens; details: Homo sapiens, HEL;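 further: growth inhibition of HEL cells, read out with a cell viability assay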
Description: SANGER: Inhibition of human HEL cell growth in a cell viability assay.

CCRF-CEM = type: functional, cell-based; details: Homo sapiens;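 further: inhibition of CCRF-CEM cell growth, measured by a cell viability assay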
Description: SANGER: Inhibition of human CCRF-CEM cell growth in a cell viability assay.

A549 = type: functional, cell-based; details: Homo sapiens;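 further: growth inhibition of A549 cells, read out with a cell viability assay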
Description: SANGER: Inhibition of human A549 cell growth in a cell viability assay.

RPMI-7951 = type: functional, cell-based, Homo sapiens; details: Homo sapiens, RPMI-7951
Description: SANGER: Inhibition of human RPMI-7951 cell growth in a cell viability assay.

NB6 = type: functional, cell-based, Homo sapiens; details: Homo sapiens, NB6;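 further: growth inhibition of NB6 cells, read out by a cell viability assay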
Description: SANGER: Inhibition of human NB6 cell growth in a cell viability assay.

HSC-2 = type: functional, cell-based, Homo sapiens; details: Homo sapiens, HSC-2;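 further: growth inhibition of human HSC-2 cells, read out by a cell viability assay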
Description: SANGER: Inhibition of human HSC-2 cell growth in a cell viability assay.

NCI-H460 = type: functional, cell-based, Homo sapiens; details: Homo sapiens, NCI-H460;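 further: cell viability assay scoring growth inhibition of human NCI-H460 cells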
Description: SANGER: Inhibition of human NCI-H460 cell growth in a cell viability assay.

NCI-H630 = type: functional, cell-based, Homo sapiens; details: Homo sapiens, NCI-H630;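 further: growth inhibition of NCI-H630 cells, read out with a cell viability assay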
Description: SANGER: Inhibition of human NCI-H630 cell growth in a cell viability assay.

NCI-H522 = type: functional, cell-based, Homo sapiens; details: Homo sapiens, NCI-H522;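 further: cell viability assay measuring growth inhibition of human NCI-H522 cells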
Description: SANGER: Inhibition of human NCI-H522 cell growth in a cell viability assay.

HCC2157 = type: functional, cell-based; details: Homo sapiens;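 further: growth inhibition of the cancer cell line, read out as cell viability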
Description: SANGER: Inhibition of human HCC2157 cell growth in a cell viability assay.

CP50-MEL-B = type: functional, cell-based, Homo sapiens; details: Homo sapiens, CP50-MEL-B;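 further: growth inhibition of the human cell line, measured with a cell viability read-out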
Description: SANGER: Inhibition of human CP50-MEL-B cell growth in a cell viability assay.

EFM-19 = type: functional, cell-based, Homo sapiens; details: Homo sapiens, EFM-19;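 further: growth inhibition of human EFM-19 cells, measured in a cell viability assay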
Description: SANGER: Inhibition of human EFM-19 cell growth in a cell viability assay.

LB831-BLC = type: functional, cell-based, Homo sapiens; details: Homo sapiens, LB831-BLC;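 further: growth inhibition of LB831-BLC cells, read out with a cell viability assay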
Description: SANGER: Inhibition of human LB831-BLC cell growth in a cell viability assay.

SW900 = type: functional, cell-based; details: Homo sapiens;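 further: IC50 is the concentration that inhibits SW900 cell growth, measured by a cell viability assay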
Description: SANGER: Inhibition of human SW900 cell growth in a cell viability assay.

C32 = type: functional, cell-based, Homo sapiens; details: Homo sapiens, C32;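 further: cell viability assay, with IC50 reflecting inhibition of C32 cell growth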
Description: SANGER: Inhibition of human C32 cell growth in a cell viability assay.

J-RT3-T3-5 = type: functional, cell-based; details: Homo sapiens;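 further: cell viability assay measuring growth inhibition of human J-RT3-T3-5 cells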
Description: SANGER: Inhibition of human J-RT3-T3-5 cell growth in a cell viability assay.

NCI-H1666 = type: functional, cell-based; details: Homo sapiens;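 further: growth inhibition of the cell line, read out with a cell viability assay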
Description: SANGER: Inhibition of human NCI-H1666 cell growth in a cell viability assay.

EW-22 = type: functional, cell-based; details: Homo sapiens;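 further: growth inhibition of the EW-22 cell line, measured with a cell viability readout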
Description: SANGER: Inhibition of human EW-22 cell growth in a cell viability assay.

SMILES | IC50 (MV4-11) [nM] | IC50 (SF-539) [nM] | IC50 (Calu-6) [nM] | IC50 (DMS-273) [nM] | IC50 (Detroit 562) [nM] | IC50 (D-423MG) [nM] | IC50 (ES1) [nM] | IC50 (NB5) [nM] | IC50 (EM-2) [nM] | IC50 (LB996-RCC) [nM] | IC50 (HEL) [nM] | IC50 (CCRF-CEM) [nM] | IC50 (A549) [nM] | IC50 (RPMI-7951) [nM] | IC50 (NB6) [nM] | IC50 (HSC-2) [nM] | IC50 (NCI-H460) [nM] | IC50 (NCI-H630) [nM] | IC50 (NCI-H522) [nM] | IC50 (HCC2157) [nM] | also measured
COc1cc(F)c(F)c(Nc2ccc(I)cc2F)c1NS(=O)(=O)C1(CC(O)CO)CC1 (centres undefined) | 812 | 2210 | > 5000 | > 5000 | > 5000 | > 5000 | > 5000 | 978 | > 5000 | > 5000 | > 5000 | > 5000 | 116 | 761 | > 5000 | > 5000 | 2520 | > 5000 | > 5000 | > 5000 | IC50 (CP50-MEL-B): 21.5 nM; IC50 (EFM-19): > 5000 nM; IC50 (LB831-BLC): > 5000 nM; IC50 (SW900): > 5000 nM; IC50 (C32): 57.2 nM; IC50 (J-RT3-T3-5): > 5000 nM; IC50 (NCI-H1666): 889 nM; IC50 (EW-22): > 5000 nM
O=C1N=C(NCc2cccs2)S/C1=C\c1ccc2ncccc2c1 | > 5000 | > 5000 | > 5000 | > 5000 | > 5000 | > 5000 | > 5000 | > 5000 | > 5000 | > 5000 | > 5000 | > 5000 | > 5000 | > 5000 | > 5000 | > 5000 | > 5000 | > 5000 | > 5000 | > 5000 | IC50 (CP50-MEL-B): > 5000 nM; IC50 (EFM-19): > 5000 nM; IC50 (LB831-BLC): > 5000 nM; IC50 (SW900): > 5000 nM; IC50 (C32): > 5000 nM; IC50 (J-RT3-T3-5): > 5000 nM; IC50 (NCI-H1666): > 5000 nM; IC50 (EW-22): > 5000 nM
COc1ccc(-c2ccc3c(N4CCOC[C@@H]4C)nc(N4CCOC[C@@H]4C)nc3n2)cc1CO [AZD-8055] | 103 | 1580 | > 2000 | 769 | 1190 | 1030 | 555 | 703 | 342 | > 2000 | 1940 | > 2000 | 195 | 735 | > 2000 | 1910 | 506 | > 2000 | 630 | > 2000 | IC50 (CP50-MEL-B): 884 nM; IC50 (EFM-19): 708 nM; IC50 (LB831-BLC): 1390 nM; IC50 (SW900): 1750 nM; IC50 (C32): 725 nM; IC50 (J-RT3-T3-5): 532 nM; IC50 (NCI-H1666): > 2000 nM; IC50 (EW-22): 684 nM
